Data: PubChem BioAssay AID1963849 (Molecular Pharmacology Branch, DTP, NCI, 2024)

Test system: 299254-011-R-J1-PDC complex spheroid viability
Assay: Anticancer human tumor 299254-011-R-J1-PDC patient-derived melanoma cell line growth inhibition [POLQ]
Details: for IC50: curve of first compound; for viability, T/C: stronger effect = lower value
How it was run: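 PDC + HUVEC + MSC complex spheroids; POLQ inhibitors ± partner drugs; top conc. at/near clinical Cmax, else 10 microM (SN-38 1 microM), half-log dilutions; 37 degrees C, 5% CO2.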

[1] = second compound 0.0316 µM, first compound 0.0316 µM
[2] = second compound 0.0316 µM, first compound 0.1 µM
[3] = second compound 0.0316 µM, first compound 0.316 µM
[4] = second compound 0.0316 µM, first compound 1 µM
[5] = second compound 0.0316 µM, first compound 3.16 µM
[6] = second compound 0.0316 µM, first compound 10 µM
[7] = second compound 0.1 µM, first compound 0.0316 µM
[8] = second compound 0.1 µM, first compound 0.1 µM
[9] = second compound 0.1 µM, first compound 0.316 µM
[10] = second compound 0.1 µM, first compound 1 µM
[11] = second compound 0.1 µM, first compound 3.16 µM
[12] = second compound 0.1 µM, first compound 10 µM
[13] = second compound 0.316 µM, first compound 0.0316 µM
[14] = second compound 0.316 µM, first compound 0.1 µM
[15] = second compound 0.316 µM, first compound 0.316 µM
[16] = second compound 0.316 µM, first compound 1 µM
[17] = second compound 0.316 µM, first compound 3.16 µM
[18] = second compound 0.316 µM, first compound 10 µM
[19] = second compound 1 µM, first compound 0.0316 µM
[20] = second compound 1 µM, first compound 0.1 µM
[21] = second compound 1 µM, first compound 0.316 µM
[22] = second compound 1 µM, first compound 1 µM
[23] = second compound 1 µM, first compound 3.16 µM
[24] = second compound 1 µM, first compound 10 µM
[25] = second compound 3.16 µM, first compound 0.0316 µM
[26] = second compound 3.16 µM, first compound 0.1 µM
[27] = second compound 3.16 µM, first compound 0.316 µM
[28] = second compound 3.16 µM, first compound 1 µM
[29] = second compound 3.16 µM, first compound 3.16 µM
[30] = second compound 3.16 µM, first compound 10 µM
[31] = second compound 10 µM, first compound 0.0316 µM
[32] = second compound 10 µM, first compound 0.1 µM
[33] = second compound 10 µM, first compound 0.316 µM
[34] = second compound 10 µM, first compound 1 µM
[35] = second compound 10 µM, first compound 3.16 µM
[36] = second compound 10 µM, first compound 10 µM
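Note: spheroids exposed to drugs for one week before measurement.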
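Throughout, for viability, T/C: percent viability relative to DMSO vehicle control taken as 100%.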

For `CC1COCCN1c1cc(C2(S(C)(=N)=O)CC2)nc(-c2ccnc3[nH]ccc23)n1` (centres undefined) + COC1C(OC(N)=O)C(O)C(Oc2ccc3c(O)c(NC(=O)c4ccc(O)c(CC=C(C)C)c4)c(=O)oc3c2C)OC1(C)C, which IC50 (second compound 0.0316 µM) is on record?
Its IC50 is 6.05 µM.

What about the IC50 (second compound 0.1 µM) of the same molecule?
The IC50 was 5.77 µM.

What about the IC50 (second compound 0.316 µM) of the same molecule?
Its IC50 is 6.98 µM.

And the IC50 (second compound 1 µM)?
Its IC50 is 5.46 µM.

And the IC50 (second compound 3.16 µM)?
The IC50 was 7.19 µM.

And the IC50 (second compound 10 µM)?
The IC50 was 6.75 µM.

And the viability, T/C [1]?
Its viability, T/C is 110%.

What about the viability, T/C [2] of the same molecule?
The viability, T/C was 116%.

What about the viability, T/C [3] of the same molecule?
The viability, T/C was 102%.

And the viability, T/C [4]?
The viability, T/C was 85.3%.

And the viability, T/C [5]?
The viability, T/C was 66.5%.

And the viability, T/C [6]?
Its viability, T/C is 38.1%.

What about the viability, T/C [7] of the same molecule?
The viability, T/C was 110%.

What about the viability, T/C [8] of the same molecule?
The viability, T/C was 95%.

And the viability, T/C [9]?
Its viability, T/C is 111%.

What about the viability, T/C [10] of the same molecule?
The viability, T/C was 106%.

And the viability, T/C [11]?
Its viability, T/C is 60.9%.

And the viability, T/C [12]?
The viability, T/C was 39.9%.

What about the viability, T/C [13] of the same molecule?
The viability, T/C was 98.9%.

And the viability, T/C [14]?
The viability, T/C was 98.7%.

What about the viability, T/C [15] of the same molecule?
The viability, T/C was 110%.

What about the viability, T/C [16] of the same molecule?
The viability, T/C was 106%.

And the viability, T/C [17]?
Its viability, T/C is 69.9%.

And the viability, T/C [18]?
The viability, T/C was 41%.

What about the viability, T/C [19] of the same molecule?
Its viability, T/C is 112%.

What about the viability, T/C [20] of the same molecule?
Its viability, T/C is 122%.

What about the viability, T/C [21] of the same molecule?
The viability, T/C was 109%.

And the viability, T/C [22]?
The viability, T/C was 85.8%.

And the viability, T/C [23]?
Its viability, T/C is 65%.

What about the viability, T/C [24] of the same molecule?
Its viability, T/C is 35.7%.

What about the viability, T/C [25] of the same molecule?
Its viability, T/C is 101%.

And the viability, T/C [26]?
The viability, T/C was 122%.

And the viability, T/C [27]?
Its viability, T/C is 105%.

And the viability, T/C [28]?
Its viability, T/C is 101%.

What about the viability, T/C [29] of the same molecule?
The viability, T/C was 70.4%.

And the viability, T/C [30]?
The viability, T/C was 41.8%.

And the viability, T/C [31]?
The viability, T/C was 122%.

And the viability, T/C [32]?
Its viability, T/C is 103%.

What about the viability, T/C [33] of the same molecule?
Its viability, T/C is 109%.

And the viability, T/C [34]?
Its viability, T/C is 90.9%.

What about the viability, T/C [35] of the same molecule?
The viability, T/C was 73.6%.

And the viability, T/C [36]?
The viability, T/C was 37.6%.

What does the source list for `CC(C)n1c(=O)n(C)c2cnc3cc(F)c(-c4ccc(OCCCN5CCCCC5)nc4)cc3c21` + Nc1ccc(C#CCN(C(=O)Cc2ncc(C(F)(F)F)cc2C(F)(F)F)c2ccc(F)cc2)nn1?
IC50 (second compound 0.0316 µM): > 10 µM; IC50 (second compound 0.1 µM): > 10 µM; IC50 (second compound 0.316 µM): > 10 µM; IC50 (second compound 1 µM): > 10 µM; IC50 (second compound 3.16 µM): > 10 µM; IC50 (second compound 10 µM): > 10 µM; viability, T/C [1]: 112%; viability, T/C [2]: 105%; viability, T/C [3]: 105%; viability, T/C [4]: 111%; viability, T/C [5]: 109%; viability, T/C [6]: 72.9%; viability, T/C [7]: 105%; viability, T/C [8]: 102%; viability, T/C [9]: 121%; viability, T/C [10]: 105%; viability, T/C [11]: 102%; viability, T/C [12]: 78.7%; viability, T/C [13]: 126%; viability, T/C [14]: 123%; viability, T/C [15]: 89.7%; viability, T/C [16]: 108%; viability, T/C [17]: 97.3%; viability, T/C [18]: 84.5%; viability, T/C [19]: 105%; viability, T/C [20]: 102%; viability, T/C [21]: 91.8%; viability, T/C [22]: 105%; viability, T/C [23]: 93.1%; viability, T/C [24]: 79.7%; viability, T/C [25]: 115%; viability, T/C [26]: 109%; viability, T/C [27]: 113%; viability, T/C [28]: 116%; viability, T/C [29]: 96.7%; viability, T/C [30]: 78.3%; viability, T/C [31]: 93.5%; viability, T/C [32]: 81.5%; viability, T/C [33]: 98.1%; viability, T/C [34]: 86.6%; viability, T/C [35]: 79.5%; viability, T/C [36]: 71.5%
